Reference: patent US8114994B2, “2′ and 3′-substituted cyclobutyl nucleoside analogs for the treatment viral infections and abnormal cellular proliferation” (Emory University, priority 2004, dated 2012)

Assays:
[1] = target: T1, HIV-RT from viral-lysate (WT) (Human immunodeficiency virus type 1 group M subtype B, UniProt P04585); assay: Inhibition of HIV-RT from viral-lysate (WT); type: biochemical; settings: for % Inhibition / cpm/ml: RT from viral lysate (WT); for IC50: HIV RT (WT) from viral lysates from infected PBMC, triplicates from one experiment
T1 construct: from tissue; host or cells: HIV viral lysate

HIV RT (M/I) = target: T2, HIV RT (M/I) (Human immunodeficiency virus type 1 group M subtype B, UniProt P04585, M771I); assay: Inhibition of HIV-RT from viral lysate, M184I mutant (M/I); type: biochemical; settings: for % Inhibition / cpm/ml: M/I RT; for IC50: HIV RT (M/I) from viral lysates from infected PBMC, triplicates from one experiment
T2 construct: from tissue; host or cells: HIV viral lysate (M184I mutant strain)

Recombinant HIV RT (WT) = target: T3, Recombinant HIV RT (WT) (Human immunodeficiency virus type 1 group M subtype B, UniProt P04585); assay: RT assay, recombinant wild type HIV-RT (cell-free); type: biochemical; settings: triplicates from one experiment, read-out: Inhibition of RT Activity (IC50)
T3 construct: was evaluated against recombinant wild type HIV-RT
Procedure: [drawing 29] was evaluated against recombinant wild type HIV-RT, as well as the M184I and M184V mutants, according to the RT assay described in Eriksson B F, Chu C K, Schinazi R F; Antimicrob. Agents Chemother. 1989, 33, 1729-1734. The results are tabulated in Tables 2-5 and depicted in FIGS. 1-3.

HIV RT (M/V) = target: T4, HIV RT (M/V) (Human immunodeficiency virus type 1 group M subtype B, UniProt P04585, M771V); assay: Inhibition of HIV-RT from viral-lysate (M/V), M184V mutant; type: biochemical; settings: for % Inhibition / cpm/ml: RT from viral lysate (M/V); for IC50: HIV RT (M/V) from viral lysates from infected PBMC, triplicates from one experiment
T4 construct: from tissue; host or cells: HIV viral lysate (M184V mutant strain)

HIV [2] = assay: Anti-HIV activity in PBM cells; type: cell-based; settings: Human immunodeficiency virus 1, PBMC
Procedure: (§1) The cyclobutyl nucleoside analogs (CBN) were evaluated for their anti-HIV activity and cytotoxicity in PBM, CEM and Vero cells, according to known procedures.
(§2) The following cyclobutyl nucleoside compounds were evaluated for their anti-HIV activity and cytotoxicity in PBM cells, according to standard procedures.

CEM cells = assay: Toxicity in CEM cells; type: cell-based; settings: Homo sapiens, CCRF-CEM
Procedure: as §1, §2

Vero cells = assay: Toxicity in Vero cells; type: cell-based; settings: Chlorocebus sabaeus
Procedure: as §1, §2

PBM cells = assay: Toxicity in PBM cells; type: cell-based; settings: PBMC
Procedure: as §1, §2

HIV [3] = assay: Anti-HIV activity in PBM cells; type: cell-based; settings: Example 114, refers to Table 6
HIV [4] = settings: after 28 days treatment; preliminary human data; cited from earlier work

In the case of “5-fluoro-1-[cis-3-(hydroxymethyl)-cyclobutyl]-cytosine triphosphate [DLS183-TP]”, the “% Inhibition” value ([1]; 0.1 μM) is reported as 0.01%, the cpm/ml ([1]; 0.1 μM) is reported as 280781.826 cpm/ml and the “% Inhibition” value ([1]; 1 μM) is reported as 18%. The cpm/ml ([1]; 1 μM) was 228126.312 cpm/ml, the “% Inhibition” value ([1]; 10 μM) was 51% and the cpm/ml ([1]; 10 μM) was 134616.36 cpm/ml. For the same molecule, the IC50 [1] was 6.85 µM, the “% Inhibition” value (HIV RT (M/I); 0.1 μM) was 0.01% and the cpm/ml (HIV RT (M/I); 0.1 μM) was 407041.44 cpm/ml. For the same molecule, the “% Inhibition” value (HIV RT (M/I); 1 μM) was 20%, the cpm/ml (HIV RT (M/I); 1 μM) was 272130.486 cpm/ml and the “% Inhibition” value (HIV RT (M/I); 10 μM) was 53%. The cpm/ml (HIV RT (M/I); 10 μM) was 160719.12 cpm/ml, the IC50 (HIV RT (M/I)) was 6.06 µM and the IC50 (Recombinant HIV RT (WT)) was 4.74 µM. For the same molecule, the “% Inhibition” value (HIV RT (M/V); 0.1 μM) was 5%, the cpm/ml (HIV RT (M/V); 0.1 μM) was 297603.432 cpm/ml and the “% Inhibition” value (HIV RT (M/V); 1 μM) was 22%. For the same molecule, the cpm/ml (HIV RT (M/V); 1 μM) was 245062.692 cpm/ml, the “% Inhibition” value (HIV RT (M/V); 10 μM) was 51% and the cpm/ml (HIV RT (M/V); 10 μM) was 152688.27 cpm/ml. It also gave an IC50 (HIV RT (M/V)) of 6.91 µM.

With `Nc1ccn([C@@H]2CS[C@H](COP(=O)(O)OP(=O)(O)OP(=O)(O)O)O2)c(=O)n1` [Compound 3TC-TP, reference compound] the “% Inhibition” value ([1]; 0.1 μM) was 3.1%, the cpm/ml ([1]; 0.1 μM) was 268420.2 cpm/ml and the “% Inhibition” value ([1]; 1 μM) was 22%. The cpm/ml ([1]; 1 μM) was 215883.012 cpm/ml, the “% Inhibition” value ([1]; 10 μM) was 55% and the cpm/ml ([1]; 10 μM) was 124341.312 cpm/ml. For the same molecule, the IC50 [1] was 6.53 µM, the “% Inhibition” value (HIV RT (M/I); 0.1 μM) was 0.03% and the cpm/ml (HIV RT (M/I); 0.1 μM) was 329435.346 cpm/ml. The “% Inhibition” value (HIV RT (M/I); 1 μM) was 0.03%, the cpm/ml (HIV RT (M/I); 1 μM) was 329605.62 cpm/ml and the “% Inhibition” value (HIV RT (M/I); 10 μM) was 13%. For the same molecule, the cpm/ml (HIV RT (M/I); 10 μM) was 298628.406 cpm/ml, the IC50 (HIV RT (M/I)) was > 10 µM and the IC50 (Recombinant HIV RT (WT)) was 2.99 µM. The “% Inhibition” value (HIV RT (M/V); 0.1 μM) was 13%, the cpm/ml (HIV RT (M/V); 0.1 μM) was 270239.712 cpm/ml and the “% Inhibition” value (HIV RT (M/V); 1 μM) was 7%. For the same molecule, the cpm/ml (HIV RT (M/V); 1 μM) was 288267.666 cpm/ml, the “% Inhibition” value (HIV RT (M/V); 10 μM) was 0.01% and the cpm/ml (HIV RT (M/V); 10 μM) was 336946.272 cpm/ml. For the same molecule, the IC50 (HIV RT (M/V)) was > 10 µM.

For `O=c1ccn([C@@H]2C[C@H](CO)C2F)c(=O)[nH]1` (stereo partly drawn) [DLS-194], the EC50 (HIV [2]) was > 100 µM.

With `Nc1ccn([C@@H]2C[C@H](CO)C2F)c(=O)n1` (stereo partly drawn) [DLS-195] the EC50 (HIV [2]) was > 100 µM.

With `O=c1[nH]c(=O)n([C@@H]2C[C@H](CO)C2F)cc1F` (stereo partly drawn) [DLS-196] the EC50 (HIV [2]) was > 100 µM.

For `OC[C@H]1C[C@@H](n2cnc3c(Cl)ncnc32)C1F` (stereo partly drawn) [DLS-197], the EC50 (HIV [2]) was > 100 µM.

For `Nc1ncnc2c1ncn2[C@@H]1C[C@H](CO)C1F` (stereo partly drawn) [DLS-206], the IC50 (CEM cells) was > 100 µM, the IC50 (Vero cells) was > 100 µM and the IC50 (PBM cells) was > 100 µM. For the same molecule, the EC50 (HIV [2]) was 50.4 µM, the EC90 (HIV [2]) was > 100 µM and the “inhibition of HIV-RT (in words)” value (HIV [3]) was “significant inhibition”.

For `Nc1ncnc2c1ncn2[C@@H]1C[C@H](CO)C1O` (stereo partly drawn) [DLS-207], the IC50 (CEM cells) was > 100 µM, the IC50 (Vero cells) was 97.8 µM and the IC50 (PBM cells) was 13.8 µM. For the same molecule, the EC50 (HIV [2]) was 33.7 µM, the EC90 (HIV [2]) was 60.1 µM and the “inhibition of HIV-RT (in words)” value (HIV [3]) was “significant inhibition”.

With `O=c1[nH]c(=O)n(C[C@@H]2C[C@H](CO)C2O)cc1F` (stereo partly drawn) [DLS-210] the EC50 (HIV [2]) was > 100 µM.

For `Nc1ncnc2c1ncn2C[C@H]1C[C@H](CO)C1` [DLS-211], the EC50 (HIV [2]) was > 100 µM.

For `Nc1ncnc2c1ncn2CC1CC(CO)C1` (stereo not drawn) [DLS-212], the EC50 (HIV [2]) was > 100 µM.

In the case of `Nc1nc(O[C@@H]2C[C@H](CO)C2F)ncc1F` (stereo partly drawn) [DLS-221], the EC50 (HIV [2]) is reported as > 100 µM.

With `Nc1nc(=O)n([C@@H]2C[C@H](CO)C2F)cc1F` (stereo partly drawn) [DLS-222] the EC50 (HIV [2]) was > 100 µM.

With `Nc1nc2c(ncn2[C@@H]2C[C@H](CO)C2F)c(=O)[nH]1` (stereo partly drawn) [DLS-223] the IC50 (CEM cells) was > 100 µM, the IC50 (Vero cells) was > 100 µM and the IC50 (PBM cells) was > 100 µM. The EC50 (HIV [2]) was 27.7 µM, the EC90 (HIV [2]) was > 100 µM and the “inhibition of HIV-RT (in words)” value (HIV [3]) was “significant inhibition”.

In the case of `Nc1nc2c(ncn2[C@@H]2CC(CO)C2CO)c(=O)[nH]1` (stereo partly drawn) [lobucavir, (R)-9-[2,3-Bis(hydroxymethyl)cyclobutyl]guanine], the “reductions in HIV viral load” value (HIV [4]) is listed as ≤ 1.5 log.
